# Reference: ChEMBL document CHEMBL1201862, “PubChem BioAssay data set” (2004)
#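 Cultured in 96-well plates, cells were exposed to test compound for 48 hours across five concentrations. At the GI50, growth is halved.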 Activity calls are given as the source filed them. Rule as the data show it: active = GI50 up to about 1.1 µM and inactive = higher. Where a SMILES comes first, the peptide text is derived from it. The star is where a group is joined. Cbz = O=C(OCc1ccccc1)*; OBn = c1ccc(CO*)cc1
# Assays:
# Assay in all cases: DTP human tumour cell line panel, 48 h
# [1] = test system: A498
# [2] = test system: A549
# [3] = test system: HCT-116
# [4] = test system: HL-60
# [5] = test system: HT-29
# [6] = test system: K562
# [7] = test system: M14
# [8] = test system: MDA-MB-231
# [9] = test system: MDA-MB-435
# [10] = test system: NCI-H23
# [11] = test system: NCI-H522
# [12] = test system: NCI/ADR-RES
# [13] = test system: OVCAR-3
# [14] = test system: OVCAR-4
# [15] = test system: SF-295
# [16] = test system: SK-MEL-5
# [17] = test system: SN12C
# [18] = test system: SNB-75
# [19] = test system: SK-MEL-28
# [20] = test system: Hs-578T
SMILES,GI50 [1],GI50 [2],GI50 [3],GI50 [4],GI50 [5],GI50 [6],GI50 [7],GI50 [8],GI50 [9],GI50 [10],GI50 [11],GI50 [12],GI50 [13],GI50 [14],GI50 [15],GI50 [16],GI50 [17],GI50 [18],GI50 [19],GI50 [20]
Nc1ccn(C2OC(COP(=O)(O)O)C(O)C2O)c(=O)n1 (stereo not given),26.8 µM (inactive),0.422 µM (active),1.8 µM (inactive),0.205 µM (active),11.4 µM (inactive),24 µM (inactive),0.982 µM (active),> 100 µM (inactive),14.5 µM (inactive),8.83 µM (inactive),20.2 µM (inactive),6.38 µM (inactive),> 100 µM (inactive),> 100 µM (inactive),33 µM (inactive),16.6 µM (inactive),7.89 µM (inactive),28.8 µM (inactive),–,–
N#Cc1nc(C2OC(COC(=O)c3ccccc3)C(OC(=O)c3ccccc3)C2OC(=O)c2ccccc2)oc1N (stereo not given),> 100 µM (inactive),26.4 µM (inactive),16.5 µM (inactive),7.03 µM (inactive),9.16 µM (inactive),6.12 µM (inactive),89.7 µM (inactive),–,–,19.1 µM (inactive),5.33 µM (inactive),–,34.1 µM (inactive),10.8 µM (inactive),39.2 µM (inactive),14.5 µM (inactive),48.2 µM (inactive),11.3 µM (inactive),31 µM (inactive),–
Nc1nncc2c1c(Br)cn2C1OC(CO)C(O)C1O (stereo not given),> 67.6 µM (inactive),31.7 µM (inactive),9.68 µM (inactive),3.73 µM (inactive),8.39 µM (inactive),5.73 µM (inactive),23.9 µM (inactive),–,–,10.9 µM (inactive),31.3 µM (inactive),–,6.62 µM (inactive),> 52.7 µM (inactive),39.6 µM (inactive),> 100 µM (inactive),5.3 µM (inactive),13.7 µM (inactive),> 100 µM (inactive),–
CN1N(c2ccccc2)C(=O)C2=NC=C(C#N)C(=N)C21C (stereo not given),> 100 µM (inactive),> 100 µM (inactive),> 100 µM (inactive),–,–,> 100 µM (inactive),> 100 µM (inactive),> 100 µM (inactive),> 100 µM (inactive),> 100 µM (inactive),> 100 µM (inactive),> 100 µM (inactive),> 100 µM (inactive),> 100 µM (inactive),> 100 µM (inactive),> 100 µM (inactive),> 100 µM (inactive),> 100 µM (inactive),> 100 µM (inactive),–
C/C(CC(=O)NC1=CC=C(NC(=O)C/C(C)=N\Nc2ccccc2)CC1)=N/Nc1ccccc1,> 100 µM (inactive),> 100 µM (inactive),> 100 µM (inactive),50.1 µM (inactive),> 100 µM (inactive),75.7 µM (inactive),> 100 µM (inactive),–,–,> 100 µM (inactive),72.6 µM (inactive),–,> 100 µM (inactive),> 100 µM (inactive),> 100 µM (inactive),> 100 µM (inactive),> 100 µM (inactive),> 100 µM (inactive),> 100 µM (inactive),–
Cc1ccc(C2=Nc3ccccc3[S+]([O-])C(c3ccc4c(c3)OCO4)C2)cc1 (stereo not given),18.2 µM (inactive),28.6 µM (inactive),16.6 µM (inactive),19.1 µM (inactive),17.7 µM (inactive),27.7 µM (inactive),17.6 µM (inactive),–,–,15.3 µM (inactive),18.3 µM (inactive),–,27.7 µM (inactive),29.3 µM (inactive),40.1 µM (inactive),15 µM (inactive),17.4 µM (inactive),88.3 µM (inactive),24.5 µM (inactive),–
C[N+](C)([O-])Cc1cccc(NC(=O)c2ccc(C(=O)Nc3cccc(C[N+](C)(C)[O-])c3)cc2)c1,–,> 100 µM (inactive),> 100 µM (inactive),> 100 µM (inactive),> 100 µM (inactive),> 100 µM (inactive),> 100 µM (inactive),> 100 µM (inactive),–,> 100 µM (inactive),> 100 µM (inactive),> 100 µM (inactive),> 100 µM (inactive),> 100 µM (inactive),> 100 µM (inactive),> 100 µM (inactive),> 100 µM (inactive),–,> 100 µM (inactive),–
O=C(CCCCCCCCC(=O)OCC1OC(n2cnc3c(=O)[nH]cnc32)C(O)C1O)OCC1OC(n2cnc3c(=O)[nH]cnc32)C(O)C1O (stereo not given),> 100 µM (inactive),> 100 µM (inactive),> 100 µM (inactive),> 100 µM (inactive),> 100 µM (inactive),> 100 µM (inactive),> 100 µM (inactive),–,–,> 100 µM (inactive),> 100 µM (inactive),–,> 100 µM (inactive),> 100 µM (inactive),> 100 µM (inactive),> 100 µM (inactive),> 100 µM (inactive),> 100 µM (inactive),> 100 µM (inactive),–
CCN(CC)c1cccc2c1C1(O)CCC3(CC21)OCCCCO3 (stereo not given),56.2 µM (inactive),49 µM (inactive),49.3 µM (inactive),> 100 µM (inactive),33.3 µM (inactive),> 100 µM (inactive),> 100 µM (inactive),–,–,> 100 µM (inactive),> 100 µM (inactive),–,84.9 µM (inactive),> 100 µM (inactive),28.8 µM (inactive),55.6 µM (inactive),74.1 µM (inactive),36.5 µM (inactive),> 100 µM (inactive),–
COC(=O)C(Cc1ccc(O)cc1)NC(=O)C(CC(=O)OCc1ccccc1)NC(=O)OCc1ccccc1 (stereo not given) (Cbz-Asp(OBn)-Tyr-OMe; configuration not given here),20.6 µM (inactive),20.7 µM (inactive),19.3 µM (inactive),25.6 µM (inactive),17.1 µM (inactive),42.5 µM (inactive),22.2 µM (inactive),18.7 µM (inactive),–,23.6 µM (inactive),–,–,–,–,–,18.2 µM (inactive),21 µM (inactive),17.9 µM (inactive),17.1 µM (inactive),24.9 µM (inactive)
O=C1/C(=C/c2cccc(Br)c2)CSC/C1=C\c1cccc(Br)c1,–,4.32 µM (inactive),1.78 µM (inactive),1.92 µM (inactive),2.29 µM (inactive),2.36 µM (inactive),2.4 µM (inactive),4.2 µM (inactive),–,3.66 µM (inactive),1.87 µM (inactive),2.34 µM (inactive),3.38 µM (inactive),2.82 µM (inactive),2.24 µM (inactive),1.87 µM (inactive),2.25 µM (inactive),–,2.65 µM (inactive),–
N#Cc1c(N2CCOCC2)ncn(-c2ccc(Cl)cc2)c1=O,> 100 µM (inactive),> 100 µM (inactive),> 100 µM (inactive),18.1 µM (inactive),–,> 100 µM (inactive),> 100 µM (inactive),–,> 100 µM (inactive),> 100 µM (inactive),–,> 100 µM (inactive),> 100 µM (inactive),–,> 100 µM (inactive),> 100 µM (inactive),> 100 µM (inactive),> 100 µM (inactive),> 100 µM (inactive),–
O=C(CSc1nnc(Cc2ccccc2)o1)Nc1ccc(Cl)cc1Cl,> 100 µM (inactive),> 100 µM (inactive),> 100 µM (inactive),> 100 µM (inactive),> 100 µM (inactive),> 100 µM (inactive),> 100 µM (inactive),–,–,> 100 µM (inactive),> 100 µM (inactive),–,> 100 µM (inactive),> 100 µM (inactive),> 100 µM (inactive),> 100 µM (inactive),> 100 µM (inactive),> 100 µM (inactive),> 100 µM (inactive),–
COc1ccc(CNC(=O)[C@H](Cc2ccc(O)cn2)NC(C)=O)cc1,> 100 µM (inactive),> 100 µM (inactive),89.3 µM (inactive),> 100 µM (inactive),> 100 µM (inactive),> 100 µM (inactive),> 100 µM (inactive),–,> 100 µM (inactive),> 100 µM (inactive),> 100 µM (inactive),> 100 µM (inactive),> 100 µM (inactive),> 100 µM (inactive),> 100 µM (inactive),> 100 µM (inactive),> 100 µM (inactive),–,> 100 µM (inactive),> 100 µM (inactive)
CC(=O)c1ccc(NC(=O)C(=O)Nn2c(S)nc3ccccc3c2=O)cc1,> 100 µM (inactive),> 100 µM (inactive),> 100 µM (inactive),> 100 µM (inactive),> 100 µM (inactive),> 100 µM (inactive),> 100 µM (inactive),–,–,> 100 µM (inactive),> 100 µM (inactive),–,> 100 µM (inactive),> 100 µM (inactive),> 100 µM (inactive),> 100 µM (inactive),> 100 µM (inactive),> 100 µM (inactive),> 100 µM (inactive),–
CNC(=O)C1(C#N)C(c2ccccc2)C(C#N)(C(=O)NC)C1c1ccccc1 (stereo not given),> 100 µM (inactive),> 100 µM (inactive),> 100 µM (inactive),–,> 100 µM (inactive),24.4 µM (inactive),> 100 µM (inactive),–,> 100 µM (inactive),> 100 µM (inactive),> 100 µM (inactive),> 100 µM (inactive),> 100 µM (inactive),> 100 µM (inactive),> 100 µM (inactive),> 100 µM (inactive),> 100 µM (inactive),> 100 µM (inactive),> 100 µM (inactive),> 100 µM (inactive)
